The text below walks through data of patent publication US10004225B2, “Wearable insect repelling patch” (S. C. Johnson & Son, Inc., priority 2005, dated 2018).

The subject of one series is mosquitoes. Description: Three-chamber test apparatus, mosquito personal area repellency of hung patches with human test subject as attractant. The settings on record: for personal area control (result in words): no adhesive layer. Format: in vivo. How it is done: Various patch sizes and insect repellents were tested, initially using the test apparatus shown schematically generally at 20 in FIG. 3. The test apparatus 20 has a sample chamber 22, connected to a mosquito chamber 24, which is connected via an opening 34 to a remote chamber 26. Each chamber is generally cubical, with a volume of about 0.43 m^3.
The sample chamber 22 has an open end 28 on the side remote from the mosquito chamber 24. A screen 30 divides the sample chamber 22 from the mosquito chamber 24. The opening 34 between the mosquito chamber 24 and the remote chamber 26 is slightly constricted by side walls 32. However, the opening 34 is still sufficiently large that mosquitoes can freely move between the mosquito and remote chambers 24 and 26.
Four, screened, low-flow exhaust ports 36 are located in the side walls 32, the exhaust ports facing the open end 28. Air is drawn through the exhaust ports 36 and exhausted from the mosquito chamber 24 at a rate sufficient to draw air in through the open end 28 but insufficient to affect the flying of mosquitoes placed in the mosquito chamber 24 or to disturb the air in the remote chamber 26.
For each test, a human test subject 38 is placed at the open end 28 of the sample chamber 22, the test subject's breath providing the warmth, CO2, and moisture known to be human attractants for mosquitoes. The exhaust ports 36 pull air, along with those attractants, though the open end 28 and on through the sample chamber 22, the screen 30, and the mosquito chamber 24. The attractants thus leave the apparatus 20 without entering the remote chamber 26.
Mosquitoes are placed in the mosquito chamber 24 and are quickly attracted to the screen 30 by the human attractants. The open end 28 is large enough to expose primarily the upper torso and head of the test subject. Two patches 10 are hung one foot into the sample chamber 22 and approximately 20 cm down from the chamber's top (except as was done otherwise in particular experiments, as is noted, below).
Percent repellency was calculated as the percent of mosquitoes that had been initially introduced into the mosquito chamber 24 (most of which were attracted to the screen 30 before the patches 10 were put in place), that then were repelled from the screen when the patches were introduced. The “repellency” indicated in the table, below, for time zero reflects the mosquitoes that were not yet attracted to the screen 30 by the time the test patches 10 were introduced. […] The patches 10 used were 103 cm^2 in size, with no adhesive layer 18.
The patch material was a non-woven cloth material comprised of rayon, polyester, and polypropylene (as described in published U.S. Patent Application US20040082248), dosed with 60 mg of the active ingredient. The controls used no patches.
The same test apparatus 20 was used in the same way as described in Example 1, with the following changes. When a test included four patches 10, two were hung as in Example 1, and two were hung about 13 cm from the bottom of the chamber to simulate patches worn on the shoulders and at the waist of a user. In one test, as indicated in the table, below, the patches 10 were attached to the test subject's chest. Each individual patch was treated with the amount of insect repellent indicated. Time is shown in minutes.

For series [1] the following is noted: cited from earlier work.
The mark [2] stands for this setting: Example 1, 2 patches 103 cm^2, 60 mg each.
The mark [3] stands for this setting: Example 1, 2 patches 103 cm^2, 60 mg each, no adhesive, 5 min.
Where [4] appears, read: Example 1, 2 patches 103 cm^2, 60 mg each, no adhesive, 10 min.
Where [5] appears, read: Example 1, 2 patches 103 cm^2, 60 mg each, no adhesive, 15 min.
Where [6] appears, read: Example 1, 2 patches 103 cm^2, 60 mg each, no adhesive, 20 min.
Where [7] appears, read: Example 1, 2 patches 103 cm^2, 60 mg each, no adhesive, time 0 min (mosquitoes not yet attracted to screen).

The structures appear in SMILES notation. Read-outs that look alike come from different tables or passages of the source.

As for `C#C[C@@H](OC(=O)[C@@H]1[C@@H](C=C(C)C)C1(C)C)C(C)=CCC` (racemic) [emphenthrin, (RS)-1-ethynyl-2-methyl-2-pentenyl-(1RS,3RS)-2,2-dimethyl-3-(2-methylpropenyl)-cyclopropanecarboxylate], the “% Repellency” value with mosquitoes (Example 2, 2 patches 103 cm^2, 60 mg each, 0 min) worked out at 17; in the series with mosquitoes (Example 2, 2 patches 103 cm^2, 60 mg each, 5 min), 33; in the series on mosquitoes (Example 2, 2 patches 103 cm^2, 60 mg each, 10 min) it was 29; in the series on mosquitoes (Example 2, 2 patches 103 cm^2, 60 mg each, 15 min) it was 29. Besides, the “practical mosquito personal area repellency (result in words)” value in the series with mosquitoes (Example 2, 2 patches 103 cm^2, 60 mg each, within 20 minutes) was “proved not to be an insect repellent capable of providing practical mosquito personal area repellency within 20 minutes”.
For `CC=C[C@@H]1[C@@H](C(=O)OCc2c(F)c(F)c(C)c(F)c2F)C1(C)C` (racemic) [profluthrin, 2,3,5,6-tetrafluoro-4-methylbenzyl (EZ)-(1RS,3RS)-2,2-dimethyl-3-(prop-1-enyl)-cyclopropanecarboxylate], in the series on mosquitoes (setting [2]), the “personal area repellency (result in words)” value was “successful personal area repellency”. Also, the “% Repellency” value in the series on mosquitoes (setting [3]) is given as 55%; in the series with mosquitoes (setting [4]) it was 67%; with mosquitoes (setting [5]) it was 91%; in the series on mosquitoes (setting [6]) it was 93%; in the series on mosquitoes (setting [7]), 6%. The Vapor pressure in series [1] (@ 25° C.) is 7.73 × 10^−5 mmHg @.
Consider `COP(=O)(OC)OC=C(Cl)Cl` [DDVP, 2,2-dichlorovinyl dimethyl phosphate], for which the “% Repellency” value in the series on mosquitoes (Example 2, 4 patches 103 cm^2, 60 mg each, 0 min) worked out at 5; with mosquitoes (Example 2, 4 patches 103 cm^2, 60 mg each, 5 min), 11; with mosquitoes (Example 2, 4 patches 103 cm^2, 60 mg each, 10 min) it was 47; with mosquitoes (Example 2, 4 patches 103 cm^2, 60 mg each, 15 min) it was 95; in the series on mosquitoes (Example 2, 4 patches 103 cm^2, 60 mg each, 20 min), 95. Further, the “personal area control (result in words)” value in the series on mosquitoes (Example 2, 4 patches, each 103 cm^2 in gross area) is reported as “successful personal area control”. Further, the Vapor pressure in series [1] (@ 20° C.) is recorded as 1.2 × 10^−5 mmHg @.
Regarding `CC1(C)[C@H](C=C(Cl)Cl)[C@H]1C(=O)OCc1c(F)c(F)cc(F)c1F` [transfluthrin, (1R-trans)-(2,3,5,6-tetrafluorophenyl)-methyl-3-(2,2-dichloroethenyl)-2,2-dimethylcyclopropanecarboxylate], the “personal area repellency (result in words)” value in the series with mosquitoes (setting [2]) is “successful personal area repellency”. In addition, the “% Repellency” value in the series on mosquitoes (setting [3]) is 54%; with mosquitoes (setting [4]), 75%; in the series on mosquitoes (setting [5]), 90%; with mosquitoes (setting [6]) it was 92%; with mosquitoes (setting [7]), 13%; in the series on mosquitoes (Example 2, 2 patches 25.8 cm^2, 30 mg each, 0 min), 13. Further, the “% Repellency” value is 41 in the series on mosquitoes (Example 2, 2 patches 25.8 cm^2, 30 mg each, 5 min); 68 in the series with mosquitoes (Example 2, 2 patches 25.8 cm^2, 30 mg each, 10 min); 74 with mosquitoes (Example 2, 2 patches 25.8 cm^2, 30 mg each, 15 min); 79 in the series with mosquitoes (Example 2, 2 patches 25.8 cm^2, 30 mg each, 20 min); 19 in the series with mosquitoes (Example 2, 2 patches 103.22 cm^2 taped to test subject's chest, 60 mg each, 0 min); 33 in the series with mosquitoes (Example 2, 2 patches 103.22 cm^2 taped to test subject's chest, 60 mg each, 5 min). In addition, the “% Repellency” value came to 44 in the series with mosquitoes (Example 2, 2 patches 103.22 cm^2 taped to test subject's chest, 60 mg each, 10 min); 52 in the series on mosquitoes (Example 2, 2 patches 103.22 cm^2 taped to test subject's chest, 60 mg each, 15 min); 81 with mosquitoes (Example 2, 2 patches 103.22 cm^2 taped to test subject's chest, 60 mg each, 20 min); 11 in the series with mosquitoes (Example 2, 4 patches 6.45 cm^2, 120 mg each, 0 min); 21 with mosquitoes (Example 2, 4 patches 6.45 cm^2, 120 mg each, 5 min); 32 in the series on mosquitoes (Example 2, 4 patches 6.45 cm^2, 120 mg each, 10 min). Also, the “% Repellency” value with mosquitoes (Example 2, 4 patches 6.45 cm^2, 120 mg each, 15 min) is given as 42; in the series with mosquitoes (Example 2, 4 patches 6.45 cm^2, 120 mg each, 20 min), 47; in the series with mosquitoes (Example 2, 4 patches* 6.45 cm^2, 60 mg each, 4th patch added 10 minutes into test, 0 min), 5; in the series with mosquitoes (Example 2, 4 patches* 6.45 cm^2, 60 mg each, 4th patch added 10 minutes into test, 5 min), 26; in the series on mosquitoes (Example 2, 4 patches* 6.45 cm^2, 60 mg each, 4th patch added 10 minutes into test, 10 min) it was 47; in the series with mosquitoes (Example 2, 4 patches* 6.45 cm^2, 60 mg each, 4th patch added 10 minutes into test, 15 min), 47. Moreover, the “% Repellency” value in the series with mosquitoes (Example 2, 4 patches* 6.45 cm^2, 60 mg each, 4th patch added 10 minutes into test, 20 min) is recorded as 47. For the same compound, the “personal area control (result in words)” value in the series on mosquitoes (Example 2, total area of patches at least 51.6 cm^2 (2 patches, each 25.8 cm^2)) is “successful personal area control”. The Vapor pressure in series [1] (@ 20° C.) was 3.0 × 10^−6 mmHg @.
